Results on 6 compounds are retold here after patent publication US20250250298A1, “ONCOLYTIC PEPTIDE AND USE THEREOF” (Rise Biopharmaceuticals Inc., priority 2022, published 2025).

One experiment has as its system HFW (Human fibroblast). Put plainly: MTT cytotoxicity, HFW. The experiment is classed as cell-based. As to conditions: 24 hours incubation. The source says:
(§1) The MTT assay is a colorimetric method for measuring the activity of enzymes in living cells that reduces Thiazolyl blue tetrazolium bromide (MTT) to formazan dyes showing a purple color. In this embodiment, a colorimetric 3-(4.5-dimethylthiazol-2-yl)-2.5-diphenyltetrazodium bromide (MTT) viability assay was used to assess the in vitro cytotoxicity of oncolytic peptides.
(§2) The half inhibition concentration (IC50) is the concentration required by the oncolytic peptides to reach fifty percent inhibition. In one embodiment, the oncolytic peptides were used for IC50 test via MTT colorimetric assay.
(§3) Human lung cancer lines PC9 and A549 and murine pancreatic cancer cell line Panc02 were cultured in RPMI medium supplemented with 10% fetal bovine serum and antibiotic in this embodiment. Additionally, murine hepatoma cell line Hepa 1-6, murine melanoma cell line B16-F10, murine fibrosarcoma cell line MN-11, murine mammary cancer cell line E0771 and human diploid fibroblast (HFW) were cultured in DMEM medium supplemented with 10% fetal bovine serum and antibiotic. Cells were cultured in a humidified incubator containing 5% CO2 at 37° C.
(§4) All cancer cell lines were seeded in a 96-well plate with a concentration of 5000-8000 cells/100 μl/well and incubated for 24 hrs. After medium was removed, 100 μl fresh medium containing peptide (ranging from 50 μM to 0.8 μM) was added to the wells. Following 24 hours incubation, fresh medium with MTT (0.5 mg/ml) was replaced and incubated for 3 hours. After medium/MTT was removed, DMSO was added at 100 μl for dissolving the formazan crystal. Cell survival rate was calculated by measuring the absorbance at 540 nm using a Multi-labeled Microplate Reader (Sunrise™, TECAN).

The test system of experiment [1] is HUVEC (Human Umbilical Vein Endothelial (Cell)). Put plainly: MTT cytotoxicity, HUVEC. The experiment is classed as cell-based. The settings on record: 24 hours incubation.
From the text: as §1, §2, §4

Experiment [2] concerns EO771 (Murine mammary adenocarcinoma). Put plainly: MTT cytotoxicity, EO771. In kind it is cell-based. The settings on record: EO771, 24 hours incubation.
From the text: as §1, §2, §3, §4

The test system of experiment [3] is Hepa I-6 (Murine hepatocellular carcinoma). Put plainly: MTT cytotoxicity, Hepa 1-6. The settings on record: Hepa I-6, 24 hours incubation. The experiment is classed as cell-based.
From the text: as §1, §2, §3, §4

The subject of experiment [4] is B16-F10 (Murine skin malignant melanoma). Nature of the experiment: MTT cytotoxicity, B16-F10. In kind it is cell-based. As to conditions: B16-F10, 24 hours incubation.
From the text: as §1, §2, §3, §4

Experiment [5] concerns MN-11 (Murine fibrosarcoma). Nature of the experiment: MTT cytotoxicity, MN-11. In kind it is cell-based. As to conditions: MN-11, 24 hours incubation.
From the text: as §1, §2, §3, §4

For the next experiment, the system named is Panc02. Put plainly: MTT cytotoxicity, Panc02. The experiment is classed as cell-based, murine. The settings on record: Panc02, 24 hours incubation.
From the text: as §1, §2, §3, §4

In experiment [6] the test system is PC9 (Human non-small cell lung cancer cell). Put plainly: MTT cytotoxicity, PC9. In kind it is cell-based. As to conditions: PC9, 24 hours incubation.
From the text: as §1, §2, §3, §4

For experiment [7], the system named is A549 (Human non-small cell lung cancer cell). Nature of the experiment: MTT cytotoxicity, A549. In kind it is cell-based. The settings on record: A549, 24 hours incubation.
From the text: as §1, §2, §3, §4

Experiment [8] deals with C9 (Human oral cancer cell). Nature of the experiment: MTT cytotoxicity, C9. The settings on record: C9, 24 hours incubation. In kind it is cell-based.
From the text: as §1, §2, §4

Experiment [9] has as its system OECM-1 (Human oral cancer cell). Put plainly: MTT cytotoxicity, OECM-1. The experiment is classed as cell-based. As to conditions: OECM-1, 24 hours incubation.
From the text: as §1, §2, §4

The test system of experiment [10] is SAS (Human tongue carcinoma). Nature of the experiment: MTT cytotoxicity, SAS. The settings on record: 24 hours incubation. In kind it is cell-based.
From the text: as §1, §2, §4

Experiment [11] deals with HepG2 Cancer Cells (Human hepatocellular carcinoma). Nature of the experiment: MTT cytotoxicity, HepG2. The settings on record: HepG2, 24 hours incubation. In kind it is cell-based.
From the text: as §1, §2, §4

Experiment [12] relates to NCI-N87 (Human gastric carcinoma). Put plainly: MTT cytotoxicity, NCI-N87. The experiment is classed as cell-based. As to conditions: NCI-N87, 24 hours incubation.
From the text: as §1, §2, §4

Experiment [13] concerns HCT-15 (Human colorectal cancer). Put plainly: MTT cytotoxicity, HCT-15. In kind it is cell-based. As to conditions: HCT-15, 24 hours incubation.
From the text: as §1, §2, §4

In experiment [14] the test system is A375 (human malignant melanoma). Put plainly: MTT cytotoxicity, A375. As to conditions: A375, 24 hours incubation. The experiment is classed as cell-based.
From the text: as §1, §2, §4

The subject of another experiment is RBC (Human blood cell). Nature of the experiment: Cytotoxicity, RBC. In kind it is cell-based.
From the text: as §2

pIC50: −log10 of the molar value. Where a SMILES comes first, the peptide text is derived from it. Where no end group is shown, it is not given here.

With “KKKKKKKKWRKWLKWLAKK-NH2 [SEQ ID NO: 1, KKKK-KK-KK-WRK-WLK-WLA-KK-NH2]”, the pIC50 – broadly, −log10 of the IC50, conventionally taken in molar units – with HFW (Human fibroblast) is 4.79; in experiment [1], 5.03; in experiment [2], 4.78; in experiment [3], 4.88; in [4], 4.72; in experiment [5], 4.84. The negative-log IC50 (pIC50) with Panc02 is 4.87; in experiment [6] it was 5.07; in [7], 5.14; in experiment [8], 4.68; in experiment [9], 4.73; in [10], 4.83. The pIC50 in experiment [11] is 4.87; in experiment [12] it was 4.77; in experiment [13], 4.91; in [14], 4.98; in the experiment on RBC (Human blood cell), 4.28.

`CC(C)C[C@H](NC(=O)[C@H](Cc1ccc2ccccc2c1)NC(=O)[C@H](CCCNC(=N)N)NC(=O)[C@H](CCCNC(=N)N)NC(=O)[C@H](CCCCN)NC(=O)[C@H](CCCCN)NC(=O)[C@H](CCCCN)NC(=O)[C@@H](N)CCCCN)C(=O)N[C@@H](C)C(=O)N[C@@H](CCCCN)C(N)=O` [SEQ ID NO: 10, KKKK-RR-Nal-LAK-NH2] (HELM PEPTIDE1{K.K.K.K.R.R.[O=C([C@H](Cc1ccc2ccccc2c1)N[*:1])[*:2]].L.A.K.[am]}$$$$V2.0; N-terminus assumed): the pIC50 in the experiment on HFW (Human fibroblast) is 3.31; in experiment [2], 4.26; in experiment [3], 4.38; in experiment [4], 3.87; in experiment [5], 4.03; with Panc02, 4.12. In addition, the pIC50 was 4.33 in experiment [7]; 4.25 in experiment [8]; 4.45 in experiment [9]; 4.01 in [10]; 4.07 in experiment [11]; 4.08 in experiment [12]. The compound also gave a pIC50 in [13] of 4.24.

Consider `CC(C)C[C@H](NC(=O)[C@H](Cc1ccc2ccccc2c1)NC(=O)[C@H](CCCCN)NC(=O)[C@H](CC(C)C)NC(=O)[C@H](Cc1c[nH]c2ccccc12)NC(=O)[C@H](CCCCN)NC(=O)[C@H](CC(C)C)NC(=O)[C@H](Cc1c[nH]c2ccccc12)NC(=O)[C@H](CCCNC(=N)N)NC(=O)[C@H](CCCNC(=N)N)NC(=O)[C@H](CCCCN)NC(=O)[C@H](CCCCN)NC(=O)[C@H](CCCCN)NC(=O)[C@@H](N)CCCCN)C(=O)N[C@@H](CCCCN)C(=O)N[C@@H](CCCCN)C(N)=O` [SEQ ID NO: 6, KKKK-RR-WLK-WLK-Nal-LKK-NH2] (HELM PEPTIDE1{K.K.K.K.R.R.W.L.K.W.L.K.[O=C([C@H](Cc1ccc2ccccc2c1)N[*:1])[*:2]].L.K.K.[am]}$$$$V2.0; N-terminus assumed), for which the pIC50 with HFW (Human fibroblast) is 5.14; in [1] it was 5.16; in [2] it was 5.00; in experiment [3], 5.07; in experiment [4], 4.98; in experiment [5], 5.25. In addition, the pIC50 is 5.06 in the experiment on Panc02; 5.47 in [6]; 5.15 in experiment [7]; 4.90 in experiment [8]; 4.78 in experiment [9]; 4.81 in experiment [10]. Also, the negative logarithm of the IC50 (pIC50) in [11] is 4.85; in [12], 5.03; in experiment [13], 5.10; in experiment [14], 4.97; in the experiment on RBC (Human blood cell) it was 4.45.

As to `CC(C)C[C@H](NC(=O)[C@H](Cc1ccc2ccccc2c1)NC(=O)[C@H](CCCCN)NC(=O)[C@H](CC(C)C)NC(=O)[C@H](Cc1c[nH]c2ccccc12)NC(=O)[C@H](CCCCN)NC(=O)[C@H](CCCNC(=N)N)NC(=O)[C@H](Cc1c[nH]c2ccccc12)NC(=O)[C@H](CCCCN)NC(=O)[C@H](CCCCN)NC(=O)[C@H](CCCCN)NC(=O)[C@H](CCCCN)NC(=O)[C@H](CCCCN)NC(=O)[C@H](CCCCN)NC(=O)[C@H](CCCCN)NC(=O)[C@@H](N)CCCCN)C(=O)N[C@@H](C)C(=O)N[C@@H](CCCCN)C(=O)N[C@@H](CCCCN)C(N)=O` [SEQ ID NO: 2, KKKK-KK-KK-WRK-WLK-Nal-LA-KK-NH2] (HELM PEPTIDE1{K.K.K.K.K.K.K.K.W.R.K.W.L.K.[O=C([C@H](Cc1ccc2ccccc2c1)N[*:1])[*:2]].L.A.K.K.[am]}$$$$V2.0; N-terminus assumed), the pIC50 in the experiment on HFW (Human fibroblast) is 4.96; in experiment [1] it was 5.04; in experiment [2] it was 5.00; in experiment [3], 5.07; in [4], 4.86; in experiment [5] it was 4.87. Also, the pIC50 in the experiment on Panc02 was 5.14; in [6], 5.36; in [7] it was 5.20; in [8], 4.80; in experiment [9] it was 4.81; in [10], 4.80. The pIC50 in [11] is 4.96; in experiment [12], 5.07; in experiment [13] it was 5.18; in experiment [14], 5.25; in the experiment with RBC (Human blood cell), 4.35.

`CC(C)C[C@H](NC(=O)[C@H](Cc1ccc2ccccc2c1)NC(=O)[C@H](CCCCN)NC(=O)[C@H](CC(C)C)NC(=O)[C@H](Cc1c[nH]c2ccccc12)NC(=O)[C@H](CCCCN)NC(=O)[C@H](CCCNC(=N)N)NC(=O)[C@H](Cc1c[nH]c2ccccc12)NC(=O)[C@H](CCCCN)NC(=O)[C@H](CCCCN)NC(=O)[C@H](CCCCN)NC(=O)[C@H](CCCCN)NC(=O)[C@H](CCCCN)NC(=O)[C@@H](N)CCCCN)C(=O)N[C@@H](C)C(=O)N[C@@H](CCCCN)C(N)=O` [SEQ ID NO: 3, KKKK-KK-WRK-WLK-Nal-LAK-NH2] (HELM PEPTIDE1{K.K.K.K.K.K.W.R.K.W.L.K.[O=C([C@H](Cc1ccc2ccccc2c1)N[*:1])[*:2]].L.A.K.[am]}$$$$V2.0; N-terminus assumed): the negative-log IC50 (pIC50) in the experiment on HFW (Human fibroblast) is 5.04; in experiment [1], 5.12; in experiment [2] it was 5.20; in [3] it was 5.15; in [4], 4.81; in experiment [5], 4.79. The pIC50 in the experiment with Panc02 was 5.07; in [6], 5.16; in [7], 5.30; in experiment [8], 4.88; in [9] it was 4.81; in [10], 4.77. Moreover, the pIC50 is 4.80 in experiment [11]; 4.97 in [12]; 5.05 in experiment [13]; 5.08 in experiment [14]; 4.42 in the experiment on RBC (Human blood cell).

Consider “KKKKRRKKWLKWLKWLKKK-NH2 [SEQ ID NO: 4, KKKK-RR-KK-WLK-WLK-WLK-KK-NH2]”, for which the pIC50 was 4.69 in the experiment with HFW (Human fibroblast); 5.33 in experiment [1]; 4.86 in experiment [2]; 4.98 in experiment [3]; 4.79 in experiment [4]; 4.88 in experiment [5]. Also, the pIC50 is 4.80 with Panc02; 5.10 in [6]; 5.05 in experiment [7]; 4.78 in [8]; 4.74 in experiment [9]; 4.73 in experiment [10]. For the same compound, the pIC50 in [11] is 4.83; in experiment [12] it was 4.82; in experiment [13], 4.97; in [14] it was 5.00; in the experiment on RBC (Human blood cell) it was 4.23.
